Experimental data taken from patent publication US20230131339A1, “EPI-X4 BASED PEPTIDES AND DERIVATIVES THEREOF” (Universitaet Ulm, priority 2020, published 2023).

What was measured:
[1] = tested on: CXCR4-tropic X4-HIV-1 (NL4-3); type: cell-based; details: compared to EPI-X4
CXCR4 = target: T1, CXCR4 (Homo sapiens, UniProt P61073); experiment: Antibody competition assay (12G5-assay) on SupT1 cells; type: binding
T1 construct: endogenous in cells; host or cells: SupT1 cells
Procedure: Second, the activity was tested by an antibody competition assay (FIG. 2). Values determined by the competition assay represent the potency of a compound to compete with an antibody that specifically binds to the binding pocket (ECL2) of CXCR4. […] To the right of the diagrams, an assignment of the curves to the tested peptides is explained. […] Three independent experiments were carried out for each peptide in each assay. The error bars refer to the standard deviation.
Antibody competition assay. Competition of compounds with antibody binding was performed on SupT1 cells. For that cells were washed in PBS containing 1% FCS and 50,000 cells were then seeded per well in a 96 V-well plate. Buffer was removed and plates were precooled at 4° C. Compounds were diluted in PBS and antibody (clone 12G5, APC labelled) was diluted in PBS containing 1% FCS. The antibody was used at a concentration closed to its determined Kd. 15 μl compounds were then added to the cells and 15 μl antibody immediately afterwards. Plates were incubated at 4° C. in the dark for 2 hours. Afterwards cells were washed twice with PBS containing 1% FCS and fixed with 2% PFA. Antibody binding was analyzed by flow cytometry (FACS CytoFLEX; Beckman Coulter®).

[2] = Functional stability assay in human plasma; details: human plasma, 2 hours
Summary of the method: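 EPI-X4 derivatives at 20 μM final in pooled human plasma or whole blood (EDTA), incubated at 37 °C with shaking for 2 or 8 h. Residual activity was measured by 12G5-APC antibody competition on CXCR4 and compared with a non-incubated t=0 sample. Blood samples were centrifuged to remove cells before the competition assay.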

[3] = tested on: CXCL12 induced Ca2+-signalling; experiment: Ca++ signaling in BCR-ABL-transformed murine bone marrow cells; type: cell-based; details: 1 μM
Procedure: Fifth, it was shown that the peptide derivatives inhibit calcium-signaling. CXCL12 stimulation of CXCR4 expressing B-cells leads to a strong calcium-release. In the presence of CXCR4 antagonists this response is reduced.
For calcium measurement, 1×10^6 BCR-ABL-transformed murine bone marrow cells were incubated with 5 μg/mL of Indo-1 (Molecular Probes) and 0.5 μg/mL of pluronic F-127 (Molecular Probes) in Iscove's medium supplemented with 1% FCS (Pan Biotech) at 37° C. for 45 min. Cells were then washed by centrifugation and the cell pellets were resuspended in Iscove's medium with 1% FCS and treated with the EPI-X4 derivatives (1 μM or 0.5 μM) for 10 minutes at room temperature. Cells were pre-warmed for 5 minutes at 37° C. Calcium flux was assessed by FACS measurement at BD LSR Fortessa. After 30 seconds of baseline recording, CXCR4-dependent calcium signaling was determined by stimulating with 100 ng/ml of mouse SDF-1a (PeproTech).

[4] = tested on: CXCL12 induced migration of T-cells; experiment: Migration assay (transwell, Jurkat cells); type: cell-based
Procedure: For each peptide, three independent experiments were performed. The error bars refer to the standard deviation.
Migration assay. Migration assays were performed using 96-well transwell assay plates (Corning Incorporated, Kennebunk, Me., USA) with 5 μm polycarbonate filters. […] Next, 75 μL (0.5×10^5 cells) of Jurkat cells (in assay buffer), together with/without the compounds, were added into the upper chambers. After 4 h at 37° C. (5% CO2), 100 μL of the lower chambers were transferred to a fresh 96 V-well plate and analyzed with Cell-Titer-Glo® assay (Promega, Madison, Wis., USA). The percentage of migrated cells was calculated as described by Balabanian et al. (2005). In order to obtain the relative migration in %, the percentage of migrated cells were normalized to the CXCL12-only control.

[5] = tested on: CXCL12-induced ERK phosphorylation of AML cells; experiment: CXCL12-induced ERK phosphorylation of AML cells; type: cell-based
Source text: (§1) Experimental data support the efficiency of the claimed peptide derivatives against the diseases mentioned above. At the example of JM #21 (SEQ ID NO.: 23) it could be shown that the peptides counteract growth and migration in vitro and in vivo of Acute Myeloid Leukemia (AML) cells as well as primary patient material and Waldenström's Macroglobulinemia (WM) cells harboring different WHIM-like CXCR4 mutations. This was accompanied by intrinsic changes suppressing oncogenic MAP kinase signaling of AML and WM cells.

[6] = tested on: primary CXCR4 AML patient samples; experiment: Engraftment of primary AML patient samples in NSG mice; type: in vivo
Source text: as §1

CD34+ normal cells = experiment: Engraftment of CD34+ normal cells; details: in vivo
Source text: as §1

[7] = tested on: CXCR4 12G5 epitope of WM cells; experiment: Blocking of the CXCR4 12G5 epitope of WM cells; type: binding; details: with or without CXCR4 mutations
Source text: as §1

WM cells = experiment: Migration of WM cells along a CXCL12 gradient; type: cell-based; details: with or without S338X mutation
Source text: as §1

[8] = Stability assay in human S9 liver fractions; details: 2 hours, with cofactors
Procedure: Further, the stability of peptides in human S9 liver fractions (in the presence of cofactors) was tested (FIG. 12). […] To simulate and predict hepatic metabolic clearance, peptides were added to human S9 liver fractions. […] For each peptide, three independent experiments were performed.
Stability assay in human S9 liver fractions. Pooled human liver S9 fractions were obtained from Thermo Fisher Scientific at a total protein concentration of 20 mg/ml. Fractions were stored in 25 μl aliquots at −80° C. For stability experiments, they were diluted to a final concentration of 0.5 mg/ml in Tris buffer. Cofactors (or buffer) were added immediately before start of the experiment (NADPH: 1 mM, UDPGA: 0.5 mM, GSH: 2.5 mM, PAPS: 0.05 mg/ml, Sigma Aldrich). The reaction was started by adding peptides or compounds at a concentration of 20 μM to the mixture and gentle agitation at 37° C. Determination of enzymatic stability was performed as described for plasma.

T1 sequence (P61073 whole entry): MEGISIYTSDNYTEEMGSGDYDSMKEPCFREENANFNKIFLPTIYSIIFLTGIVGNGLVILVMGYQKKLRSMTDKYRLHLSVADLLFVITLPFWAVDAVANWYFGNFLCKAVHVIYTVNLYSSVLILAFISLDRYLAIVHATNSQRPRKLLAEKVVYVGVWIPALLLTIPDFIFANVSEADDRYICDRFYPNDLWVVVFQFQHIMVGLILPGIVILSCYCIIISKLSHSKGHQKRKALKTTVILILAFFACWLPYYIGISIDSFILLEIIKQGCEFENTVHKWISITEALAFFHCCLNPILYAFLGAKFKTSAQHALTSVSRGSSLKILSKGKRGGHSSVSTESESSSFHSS

SMILES: CC[C@H](C)[C@H](N)C(=O)N[C@@H](CC(C)C)C(=O)N[C@@H](CCCNC(=N)N)C(=O)N[C@@H](Cc1c[nH]c2ccccc12)C(=O)N[C@@H](CO)C(=O)N[C@@H](CCCNC(=N)N)C(=O)N[C@@H](CCCCN)C(=O)N[C@@H](CC(C)C)C(=O)N1CCC[C@H]1C(=O)N[C@@H](CS)C(=O)N[C@H](C(=O)N[C@@H](CO)C(=O)O)C(C)C [JM #21]
- fold more effective inhibition of X4-HIV-1 than EPI-X4 [1]: ~100 fold
- antibody competition / binding to CXCR4 (in words) (CXCR4): more effective antibody competition
- remaining (relative) activity after 2 hours of plasma incubation [2]: completely inactive
- reduction of CXCL12 induced calcium-signaling [3]: much stronger than the reduction seen for WSC02
- inhibition of CXCL12 induced migration of T-cells (in words) [4]: more effective than WSC02
- CXCL12-induced ERK phosphorylation of AML cells [5]: reduced CXCL12-induced ERK phosphorylation of AML cells
- engraftment potential of primary CXCR4 AML patient samples [6]: reduced engraftment potential of primary CXCR4 AML patient samples in NSG mice
- engraftment potential of CD34+ normal cells (CD34+ normal cells): no inhibiting effect on the engraftment potential of CD34+ normal cells
- blocking of CXCR4 12G5 epitope of WM cells [7]: blocked the CXCR4 12G5 epitope of WM cells in presence or absence of different CXCR4 mutations in a dose dependent manner
- migration of WM cells along a CXCL12 gradient (WM cells): impaired migration of WM cells with or without S338X mutation along a CXCL12 gradient
- remaining activity in human S9 liver fractions after 2 hours [8]: readily inactivated by liver enzymes
